In patent US20090312288A1 (TAKEDA PHARMACEUTICAL COMPANY LIMITED, priority 2008, published 2009) one finds IC50 data, which are given here for 15 compounds.

pIC50: −log10 of the molar value.

For this assay, the target named is Aurora B/INCENP (Homo sapiens, UniProt Q96GD4). Briefly: Determination of inhibition of AIK: Aurora B/INCENP direct fluorescence polarization (IMAP) assay. The settings on record: 10 uM ATP, 0.8 nM Aurora B/INCENP; values given as bins; read-out: IC50 of Exemplified Compounds Against AIK B. Type of assay: biochemical. For orientation: In fluorescence polarisation assays a small probe gives low polarisation when free and higher when bound to something large.
Sequence of Aurora B/INCENP (Q96GD4 whole entry): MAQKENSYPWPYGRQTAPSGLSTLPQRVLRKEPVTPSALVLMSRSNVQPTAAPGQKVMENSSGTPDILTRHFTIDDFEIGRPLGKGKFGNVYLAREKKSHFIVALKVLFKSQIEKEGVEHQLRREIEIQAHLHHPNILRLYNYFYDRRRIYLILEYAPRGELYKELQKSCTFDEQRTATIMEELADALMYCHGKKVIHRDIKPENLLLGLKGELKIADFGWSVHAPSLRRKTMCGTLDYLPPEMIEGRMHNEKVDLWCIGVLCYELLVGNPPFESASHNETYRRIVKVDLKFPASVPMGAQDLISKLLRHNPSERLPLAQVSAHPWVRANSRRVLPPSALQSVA
Sequence of Aurora B/INCENP (Q9NQS7 whole entry partner): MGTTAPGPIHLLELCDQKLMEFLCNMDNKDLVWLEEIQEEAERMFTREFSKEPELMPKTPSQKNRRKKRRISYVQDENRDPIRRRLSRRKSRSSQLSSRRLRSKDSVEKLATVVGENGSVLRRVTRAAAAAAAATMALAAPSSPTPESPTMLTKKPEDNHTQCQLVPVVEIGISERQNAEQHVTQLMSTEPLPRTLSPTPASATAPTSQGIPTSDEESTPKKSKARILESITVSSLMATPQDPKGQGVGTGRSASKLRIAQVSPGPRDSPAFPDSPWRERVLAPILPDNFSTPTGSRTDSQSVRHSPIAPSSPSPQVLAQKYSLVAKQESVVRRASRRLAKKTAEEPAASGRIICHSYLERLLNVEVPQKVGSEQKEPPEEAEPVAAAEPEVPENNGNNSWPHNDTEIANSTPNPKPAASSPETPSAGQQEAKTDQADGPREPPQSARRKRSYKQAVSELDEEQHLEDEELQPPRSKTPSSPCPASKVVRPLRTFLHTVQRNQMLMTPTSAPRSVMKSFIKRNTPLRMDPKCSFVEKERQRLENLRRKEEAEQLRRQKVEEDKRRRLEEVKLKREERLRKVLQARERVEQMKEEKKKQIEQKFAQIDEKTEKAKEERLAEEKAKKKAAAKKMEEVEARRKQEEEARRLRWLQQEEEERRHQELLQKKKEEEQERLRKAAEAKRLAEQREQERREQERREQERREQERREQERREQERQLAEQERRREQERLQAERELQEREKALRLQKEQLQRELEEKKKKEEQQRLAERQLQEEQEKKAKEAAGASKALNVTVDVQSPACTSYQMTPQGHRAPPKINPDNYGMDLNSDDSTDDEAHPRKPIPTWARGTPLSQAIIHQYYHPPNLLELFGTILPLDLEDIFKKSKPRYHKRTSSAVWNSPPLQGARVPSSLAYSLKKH
Broadly, the pIC50 is the IC50 on a negative log10 scale, so that one unit is a factor of ten. For the compound `CCS(=O)(=O)c1cccc(-c2ccc(OCCCN(CCOP(=O)(O)O)CC(F)(F)F)c3[nH]c4ncc(C)cc4c23)c1` [Compound 343, 2-((3-(5-(3-(ethylsulfonyl)phenyl)-3-methyl-9H-pyrido[2,3-b]indol-8-yloxy)propyl)(2,2,2-trifluoroethyl)amino)ethyl dihydrogen phosphate], the pIC50 was above 8.40.

With `CCS(=O)(=O)c1cccc(-c2cc(C(=O)NCCNC)c(C)c3[nH]c4ncc(C)cc4c23)c1` [Compound 89, N-(2-(methylamino)ethyl)-5-(3-(ethylsulfonyl)phenyl)-3,8-dimethyl-9H-pyrido[2,3-b]indole-7-carboxamide], the pIC50 is 7.89 to 8.07.

As to `CCS(=O)(=O)c1cccc(-c2cc(C(=O)N3CCN(C)CC3)c(C)c3[nH]c4ncc(C)cc4c23)c1` [Compound 93], the pIC50 was below 7.89.

`CCS(=O)(=O)c1cccc(-c2ccc(OCCN(C)C)c3[nH]c4ncc(Cl)cc4c23)c1` [Compound 222, 2-(3-chloro-5-(3-(ethylsulfonyl)phenyl)-9H-pyrido[2,3-b]indol-8-yloxy)-N,N-dimethylethanamine]: the pIC50 was 8.26 to 8.40.

Consider `CCS(=O)(=O)c1cccc(-c2ccc(OCCC#N)c3[nH]c4ncc(C)cc4c23)c1` [Compound 210, 3-(5-(3-(ethylsulfonyl)phenyl)-3-methyl-9H-pyrido[2,3-b]indol-8-yloxy)propanenitrile], for which the pIC50 was below 7.89.

For the compound `CCS(=O)(=O)c1cccc(-c2cc(C(=O)NCCOCCO)c(C)c3[nH]c4ncc(C)cc4c23)c1` [Compound 111], the negative logarithm of the IC50 (pIC50) is 8.07 to 8.25.

Take `Cc1cccc(-c2cccc3[nH]c4ncccc4c23)c1` [Compound 11, 5-m-tolyl-9H-pyrido[2,3-b]indole]: the negative-log IC50 (pIC50) is below 7.89.

For the compound `Cc1cnc2[nH]c3c(OC[C@@H]4CN(CCO)CCO4)ccc(-c4cccc(S(=O)(=O)C5CC5)c4)c3c2c1` [Compound 363, (S)-2-(2-((5-(3-(cyclopropylsulfonyl)phenyl)-3-methyl-9H-pyrido[2,3-b]indol-8-yloxy)methyl)morpholino)ethanol], the pIC50 is 8.26 to 8.40.

In the case of `CCN(CCO)CCOc1ccc(-c2cccc(S(=O)(=O)C3CC3)c2)c2c1[nH]c1ncc(C)cc12` [Compound 318, 2-((2-(5-(3-(cyclopropylsulfonyl)phenyl)-3-methyl-9H-pyrido[2,3-b]indol-8-yloxy)ethyl)(ethyl)amino)ethanol], the pIC50 is 7.89 to 8.07.

`CCOc1ncc(-c2cccc(S(=O)(=O)CC)c2)c2c1[nH]c1ncc(C)cc12` [Compound 51, 5-(3-Ethanesulfonyl-phenyl)-8-ethoxy-3-methyl-9H-dipyrido[2,3-b;4′,3′-d]pyrrole]: the pIC50 was 8.07 to 8.25.

As for `CCS(=O)(=O)c1cccc(-c2ccc(OCCCN(CCO)CC(F)(F)F)c3[nH]c4ncc(C)cc4c23)c1` [Compound 340, 2-((3-(5-(3-(ethylsulfonyl)phenyl)-3-methyl-9H-pyrido[2,3-b]indol-8-yloxy)propyl)(2,2,2-trifluoroethyl)amino)ethanol], the pIC50 was below 7.89.

Turning to `CCS(=O)(=O)c1cccc(-c2cc(C(=O)NCCN(C)C)cc3[nH]c4ncc(C)cc4c23)c1` [Compound 142, 5-(3-Ethanesulfonyl-phenyl)-3-methyl-9H-pyrido[2,3-b]indole-7-carboxylic acid (2-dimethylamino-ethyl)-amide], the pIC50 was 8.07 to 8.25.

On to `CCS(=O)(=O)c1cccc(-c2ccc(OCc3cccc(F)n3)c3[nH]c4ncc(C)cc4c23)c1` [Compound 433, 5-(3-(ethylsulfonyl)phenyl)-8-((6-fluoropyridin-2-yl)methoxy)-3-methyl-9H-pyrido[2,3-b]indole], for which the pIC50 is above 8.40.

Turning to `CCS(=O)(=O)c1cccc(-c2ccc(OCCO)c3[nH]c4ncc(Cl)cc4c23)c1` [Compound 225, 2-(3-chloro-5-(3-(ethylsulfonyl)phenyl)-9H-pyrido[2,3-b]indol-8-yloxy)ethanol], the pIC50 is 8.26 to 8.40.

As for `CCNS(=O)(=O)c1cccc(-c2ccc(OC)c3[nH]c4ncc(C)cc4c23)c1` [Compound 170, N-ethyl-3-(8-methoxy-3-methyl-9H-pyrido[2,3-b]indol-5-yl)benzenesulfonamide], the pIC50 is above 8.40.
